{"source": "patent US20150056314A1", "about": "“EXTRACTION METHOD FOR USE IN EXTRACTING BENEFICIAL COMPOUNDS FROM COFFEE BEANS” (Applied Food Sciences, Inc., priority 2003, published 2015)", "origin": "cited, not measured here", "key": {"[1]": {"tested_on": "methylazoxymethanol-induced large intestinal tumors", "conditions": "hamster models"}, "rat stomach cancer": {"tested_on": "rat stomach cancer", "conditions": "rat (Shimizu et al J Toxicol Sci 1999)"}}}
{"molecule": "O=C(/C=C/c1ccc(O)c(O)c1)O[C@@H]1C[C@](O)(C(=O)O)C[C@@H](O)[C@H]1O", "note": "[chlorogenic acid]", "values": [{"measurement": "inhibition of methylazoxymethanol-induced large intestinal tumors", "setting": "[1]", "value": "inhibit"}, {"measurement": "effect on rat stomach cancer", "setting": "rat stomach cancer", "value": "chemopreventative effect"}]}
